Data from PubChem BioAssay (NCI).
≈ marks a conversion by molar mass, not a printed value.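 Each compound was tested at five concentrations against cells in 96-well plates for 48 hours. Here, GI50 denotes the concentration required for 50% inhibition of growth. TGI: concentration producing complete growth inhibition.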 Where a SMILES comes first, the peptide text is derived from it. The star is where a group is joined. Boc = CC(C)(C)OC(=O)*; OBn = c1ccc(CO*)cc1

Columns and labels:
Assay in all cases: NCI-60 cell line screen, 48 h; in the data active means GI50 below about 0.43 µM; inactive means the rest
A498 renal = tested on: A498 renal
COLO 205 colon = tested on: COLO 205 colon
K-562 leukemia = tested on: K-562 leukemia
M14 melanoma = tested on: M14 melanoma
MALME-3M melanoma = tested on: MALME-3M melanoma
NCI-H522 lung = tested on: NCI-H522 lung
OVCAR-4 ovarian = tested on: OVCAR-4 ovarian
RPMI-8226 leukemia = tested on: RPMI-8226 leukemia
SK-MEL-28 melanoma = tested on: SK-MEL-28 melanoma
SNB-75 CNS = tested on: SNB-75 CNS
UACC-257 melanoma = tested on: UACC-257 melanoma
UACC-62 melanoma = tested on: UACC-62 melanoma
UO-31 renal = tested on: UO-31 renal
786-0 renal = tested on: 786-0 renal
A549 NSCLC = tested on: A549 NSCLC
BT-549 breast = tested on: BT-549 breast
CAKI-1 renal = tested on: CAKI-1 renal
CCRF-CEM leukemia = tested on: CCRF-CEM leukemia
DU-145 prostate = tested on: DU-145 prostate
EKVX NSCLC = tested on: EKVX NSCLC
HCC-2998 colon = tested on: HCC-2998 colon
HCT-116 colon = tested on: HCT-116 colon
HCT-15 colon = tested on: HCT-15 colon
HL-60(TB) leukemia = tested on: HL-60(TB) leukemia
HOP-62 NSCLC = tested on: HOP-62 NSCLC
HOP-92 NSCLC = tested on: HOP-92 NSCLC
HS 578T breast = tested on: HS 578T breast
HT29 colon = tested on: HT29 colon
IGROV1 ovarian = tested on: IGROV1 ovarian
KM12 colon = tested on: KM12 colon
LOX IMVI melanoma = tested on: LOX IMVI melanoma
MCF7 breast = tested on: MCF7 breast
MDA-MB-231 breast = tested on: MDA-MB-231 breast
MOLT-4 leukemia = tested on: MOLT-4 leukemia
NCI-H226 lung = tested on: NCI-H226 lung
NCI-H23 lung = tested on: NCI-H23 lung
NCI-H460 lung = tested on: NCI-H460 lung
NCI/ADR-RES ovarian = tested on: NCI/ADR-RES ovarian
OVCAR-3 ovarian = tested on: OVCAR-3 ovarian
OVCAR-5 ovarian = tested on: OVCAR-5 ovarian
OVCAR-8 ovarian = tested on: OVCAR-8 ovarian
PC-3 prostate = tested on: PC-3 prostate
RXF 393 renal = tested on: RXF 393 renal
SF-268 CNS = tested on: SF-268 CNS
SF-295 CNS = tested on: SF-295 CNS
SF-539 CNS = tested on: SF-539 CNS
SK-MEL-2 melanoma = tested on: SK-MEL-2 melanoma
SK-MEL-5 melanoma = tested on: SK-MEL-5 melanoma
SK-OV-3 ovarian = tested on: SK-OV-3 ovarian
SN12C renal = tested on: SN12C renal
SNB-19 CNS = tested on: SNB-19 CNS
SR leukemia = tested on: SR leukemia
SW-620 colon = tested on: SW-620 colon
T-47D breast = tested on: T-47D breast
TK-10 renal = tested on: TK-10 renal
U251 CNS = tested on: U251 CNS

CC(C)CC(NC(=O)OC(C)(C)C)C(=O)NC(CCC(=O)OCc1ccccc1)C(N)=O (stereo not drawn) (Boc-Leu-Glu(OBn)-NH2; configuration not given here)
51.4 µg/mL: TGI (SK-MEL-28 melanoma)
inactive: GI50 (A498 renal) 45.5 µg/mL | GI50 (COLO 205 colon) 87.1 µg/mL | GI50 (K-562 leukemia) 54.1 µg/mL | GI50 (M14 melanoma) 32.7 µg/mL | GI50 (MALME-3M melanoma) 32.2 µg/mL | GI50 (NCI-H522 lung) 29.4 µg/mL | GI50 (OVCAR-4 ovarian) 34.8 µg/mL | GI50 (RPMI-8226 leukemia) 43.9 µg/mL | GI50 (SK-MEL-28 melanoma) 20.8 µg/mL | GI50 (SNB-75 CNS) 32.7 µg/mL | GI50 (UACC-257 melanoma) 20.1 µg/mL (≈ 44.7 µM) | GI50 (UACC-62 melanoma) 47.9 µg/mL | GI50 (UO-31 renal) 85.5 µg/mL
85.9 µg/mL: TGI (UACC-257 melanoma)

COc1ccc(-c2cncn2-c2cc(OC)c(OC)c(OC)c2)cc1F
22200 nM: TGI (OVCAR-3 ovarian)
> 49800 nM: TGI (KM12 colon)
13100 nM: TGI (SK-MEL-5 melanoma)
51900 nM: TGI (HOP-92 NSCLC)
1030 nM: TGI (NCI-H522 lung)
> 71600 nM: TGI (BT-549 breast)
> 100000 nM: TGI (A549 NSCLC) | TGI (CCRF-CEM leukemia) | TGI (DU-145 prostate) | TGI (EKVX NSCLC) | TGI (HCT-15 colon) | TGI (HOP-62 NSCLC) | TGI (HS 578T breast) | TGI (K-562 leukemia) | TGI (MALME-3M melanoma) | TGI (MCF7 breast) | TGI (MDA-MB-231 breast) | TGI (MOLT-4 leukemia) | TGI (NCI-H226 lung) | TGI (NCI-H23 lung) | TGI (NCI-H460 lung) | TGI (NCI/ADR-RES ovarian) | TGI (OVCAR-4 ovarian) | TGI (OVCAR-5 ovarian) | TGI (OVCAR-8 ovarian) | TGI (PC-3 prostate) | TGI (SF-268 CNS) | TGI (SK-MEL-2 melanoma) | TGI (SK-MEL-28 melanoma) | TGI (SN12C renal) | TGI (SNB-19 CNS) | TGI (SNB-75 CNS) | TGI (SW-620 colon) | TGI (T-47D breast) | TGI (TK-10 renal) | TGI (U251 CNS) | TGI (UACC-62 melanoma)
57200 nM: TGI (SK-OV-3 ovarian)
64900 nM: TGI (LOX IMVI melanoma)
> 24400 nM: TGI (CAKI-1 renal)
> 49200 nM: TGI (786-0 renal)
> 38600 nM: TGI (HT29 colon)
141 nM: TGI (M14 melanoma)
19000 nM: TGI (IGROV1 ovarian)
15800 nM: TGI (HCT-116 colon)
13400 nM: TGI (HCC-2998 colon)
64800 nM: TGI (UO-31 renal)
12200 nM: TGI (RPMI-8226 leukemia)
25000 nM: TGI (A498 renal)
inactive: GI50 (HOP-92 NSCLC) 6000 nM | GI50 (MALME-3M melanoma) 49000 nM | GI50 (NCI-H226 lung) 21500 nM | GI50 (OVCAR-4 ovarian) 1190 nM | GI50 (SN12C renal) 789 nM | GI50 (TK-10 renal) 18400 nM
< 28.8 nM: TGI (HL-60(TB) leukemia)
active: GI50 (786-0 renal) < 21.4 nM | GI50 (A498 renal) < 49.5 nM | GI50 (A549 NSCLC) < 34.8 nM | GI50 (BT-549 breast) < 29.1 nM | GI50 (CAKI-1 renal) < 19.7 nM | GI50 (CCRF-CEM leukemia) < 29.6 nM | GI50 (COLO 205 colon) < 12.2 nM | GI50 (DU-145 prostate) < 34.2 nM | GI50 (EKVX NSCLC) 153 nM | GI50 (HCC-2998 colon) 10.1 nM | GI50 (HCT-116 colon) < 15.8 nM | GI50 (HCT-15 colon) < 10 nM | GI50 (HL-60(TB) leukemia) 10.3 nM | GI50 (HOP-62 NSCLC) < 36.5 nM | GI50 (HS 578T breast) 332 nM | GI50 (HT29 colon) < 10 nM | GI50 (IGROV1 ovarian) < 21.2 nM | GI50 (K-562 leukemia) < 10 nM | GI50 (KM12 colon) < 10 nM | GI50 (LOX IMVI melanoma) < 10 nM | GI50 (M14 melanoma) < 10 nM | GI50 (MCF7 breast) < 10 nM | GI50 (MDA-MB-231 breast) 103 nM | GI50 (MOLT-4 leukemia) < 28.3 nM | GI50 (NCI-H23 lung) 149 nM | GI50 (NCI-H460 lung) < 10 nM | GI50 (NCI-H522 lung) < 10 nM | GI50 (NCI/ADR-RES ovarian) 10.8 nM | GI50 (OVCAR-3 ovarian) 21.9 nM | GI50 (OVCAR-5 ovarian) 78.9 nM | GI50 (OVCAR-8 ovarian) < 48.8 nM | GI50 (PC-3 prostate) 17.9 nM | GI50 (RPMI-8226 leukemia) < 10 nM | GI50 (RXF 393 renal) < 27.8 nM | GI50 (SF-268 CNS) 54.8 nM | GI50 (SF-295 CNS) < 14.2 nM | GI50 (SF-539 CNS) < 23.2 nM | GI50 (SK-MEL-2 melanoma) < 17.2 nM | GI50 (SK-MEL-28 melanoma) 35.9 nM | GI50 (SK-MEL-5 melanoma) < 10 nM | GI50 (SK-OV-3 ovarian) < 48.6 nM | GI50 (SNB-19 CNS) < 14.6 nM | GI50 (SNB-75 CNS) < 11.9 nM | GI50 (SR leukemia) < 10 nM | GI50 (SW-620 colon) < 17.7 nM | GI50 (T-47D breast) < 10 nM | GI50 (U251 CNS) < 26.6 nM | GI50 (UACC-62 melanoma) < 11.7 nM | GI50 (UO-31 renal) 71.7 nM
